Experimental data from article PMC10641818, “Development of First-in-Class Dual Sirt2/HDAC6 Inhibitors as Molecular Tools for Dual Inhibition of Tubulin Deacetylation” (Journal of Medicinal Chemistry, 2023).

Assays:
α-tubulin acetylation = experiment: Immunofluorescence microscopy of α-tubulin acetylation in PC-3M-luc cells; assay type: cell-based; conditions: 20 μM, 5 h
Experimental: The detection of acetylation levels of α-tubulin by immunofluorescence was performed as previously described.[47] In brief, PC-3M-luc cells (25 000 cells per well) were plated in Ibidi 8-well slides (Ibidi, catalogue no. 80826) and incubated overnight at 37 °C, 5% CO2. Next, cells were treated with 20 μM of inhibitor. After 5 h, the medium was removed and the cells washed with PBS and fixed with 4% PFA for 8–10 min at ambient temperature. Cells were rinsed three times with PBS and lysed with extraction buffer (PBS, 0.1% Triton X-100) for 3–5 min at ambient temperature. After another washing step with PBS, blocking buffer (PBS, 0.1% Triton, 5% FCS) was added for at least 10 min before incubating with monoclonal acetylated α-tubulin antibody (1:500, Sigma-Aldrich, catalogue no. T6793) in blocking buffer overnight at 4 °C. […] The cells were rinsed two times with blocking buffer and once with PBS and DAPI in mounting medium ([…] HardSet Antifade Mounting Medium with DAPI, no. H-1500-10) diluted 1:50 in PBS was added and it was incubated for 10 min in the dark. Confocal microscopy was performed with a Leica SP8 confocal microscope equipped with a 40×/1.40 oil objective (Leica Microsystems) keeping the laser settings of the images constant to allow direct comparison of signal intensities between images.

Sirt2 (demyristoylation) = Sirt2 (demyristoylation) (Homo sapiens, UniProt Q8IXJ6); experiment: Continuous Sirt2 demyristoylation assay (myristoylated peptide substrate); assay type: biochemical; conditions: peptide-based myristoylated substrate, triplicate; read-out: Sirt2-mediated demyristoylation IC50
Sirt2 (demyristoylation), sequence (Q8IXJ6 whole entry): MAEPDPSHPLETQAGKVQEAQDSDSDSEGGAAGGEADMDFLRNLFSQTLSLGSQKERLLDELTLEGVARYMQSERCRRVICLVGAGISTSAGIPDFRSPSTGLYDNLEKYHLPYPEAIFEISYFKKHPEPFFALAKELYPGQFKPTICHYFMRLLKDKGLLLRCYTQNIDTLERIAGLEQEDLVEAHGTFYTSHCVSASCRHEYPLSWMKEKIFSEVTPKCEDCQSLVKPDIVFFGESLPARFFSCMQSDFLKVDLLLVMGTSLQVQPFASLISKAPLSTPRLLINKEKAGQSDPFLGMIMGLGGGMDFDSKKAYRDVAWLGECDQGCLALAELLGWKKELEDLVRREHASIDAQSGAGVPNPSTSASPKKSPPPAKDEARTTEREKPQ
Experimental: As a second method to confirm the inhibition of Sirt2-mediated demyristoylation by 33, we used a continuous Sirt2 demyristoylation assay as reported by Zessin et al.[48] In brief, this assay was performed in a black 384-well fluorescence plate in a total volume of 40 μL of Sirt assay buffer (20 mM Tris-HCl, 150 mM NaCl, 5 mg/mL MgCl2, 2 mg/mL BSA, pH 7.8). Dilution series of the inhibitor was done in DMSO. A total of 2 μL of the inhibitor dilutions were incubated with 14 μL of the peptide substrate, referred to as F4 in Zessin et al.[48] (final concentration 40 nM) and 14 μL of Sirt2 solution (final concentration 1 nM) for 5 min at room temperature. In addition to the inhibitor-containing samples, a sample without inhibitors was measured as a positive control, and a sample without enzymes was measured as a negative control. The DMSO concentration was set to 5% (v/v). The reaction was started by the addition of 10 μL of NAD^+ (final concentration 500 μM). The product formation was monitored by the change in fluorescence intensity, and the reaction rate represented the activity. Fluorescence readout was performed with a BMG Fluostar Omega plate reader at following wavelengths: Excitation wavelength: λEx = 485 ± 10 nm, emission wavelength: λEm = 530 ± 10 nm. Inhibition was calculated using the following equation: [drawing 1] […]

[1] = tested on: PC-3M-luc prostate cancer cells; experiment: Cell viability assay (MTS) PC-3M-luc; assay type: cell-based; conditions: 72 h, @ 50 μM
Experimental: (§1) Cell viability assays of HGC27 and PC-3M-luc cells were performed by using the Celltiter 96 Aqueous Nonradioactive Proliferation Assay (Promega). Cells were seeded in sterile 96-well plates at a density of 2000 cells per well and incubated overnight at 37 °C and 5% CO2. Compound or vehicle were added to a final concentration of 0.5% DMSO. […] Cells were seeded at densities of 10^4 cells/well for W1 cells or 2 × 10^3 cells/well for MCF-7 cells. Tests were performed in 96-well plates (Sarstedt AG, Nümbrecht, Germany). After incubation overnight, cells were supplemented with half logarithmic dilution series of the indicated compounds and DPBS (PAN Biotech GmbH, Aidenbach, Germany) as control. Then 72 h after addition of cytostatic treatment, the MTT solution (20 μL, 5 mg/mL) was added into the wells for 1 h at 37 °C and 5% CO2 until formazan crystals were formed. The supernatant was removed, and the cells were dissolved in 200 μL of DMSO. Absorption was analyzed at 570 nm, with background subtraction at 690 nm, using a plate reader (Thermomultiscan EX, Thermo, Schwerte, Germany). Cell viability was then determined by nonlinear regression and a four-parameter logistic equation with variable hill slope. […] The significance of the difference of the effects of 33 and 4 + 57 was determined by using an unpaired, two-tailed t test with Welch’s correction, implemented in GraphPad Prism 8.4.0 (GraphPad, USA). Statistical significance was accepted if p < 0.05. Asterisks indicate *p < 0.05, **p < 0.01.

W1 ovarian cancer cells = experiment: Cell viability assay (MTT) W1; assay type: cell-based; conditions: 72 h, @ 50 μM
Experimental: as §1

[2] = tested on: histone H3 acetylation (marker of HDAC1-3 inhibition); experiment: Western blot on histone H3 hyperacetylation in MCF-7 cells; assay type: cell-based; conditions: 24 h, 10 µM
Experimental: Western blots on histone H3 hyperacetylation in MCF-7 cells were performed according to a previously published protocol.[72] In brief, MCF-7 were centrifuged (450g, 4 min, 22 °C) and lysed with cell extraction buffer (Thermo Fisher), supplemented with 0.1 mM PMSF, Halt Protease Inhibitor (Thermo Fisher), and Natriumorthovanadat (Thermo Fisher). Precast gels with a polymerization degree of 4–15% were used (Mini-PROTEAN TGX Stain-Free; Bio-Rad Laboratories GmbH, Munich, Germany). Proteins were transferred to Trans-Blot Turbo-PVDF membrane (Bio-Rad). The membrane was blocked with skimmed milk powder in Tris-buffered saline-Tween 20 (with 0.2% Tween 20) for 60 min, followed by three washing cycles of 10 min using Tris-buffered saline-Tween 20. Afterward, membranes were incubated with primary antibodies for ac.-Histon H3 (Cell Signal, rabbit) and GAPDH (Gene Tex, Irvine, USA, mouse) for a total of 60 min at room temperature and then incubated at 4 °C overnight. […] After rinsing of the secondary antibody, membranes were detected using ClarityECL Western Blotting Substrate (Bio-Rad). For quantitative determination, the StainFree technique was employed (Bio-Rad), as well as normalization, against the housekeeping protein GAPDH, which allows the imaging of whole lysates in SDS-PAGE before blotting and normalization against the total protein. […]

[3] = tested on: HGC27 gastric carcinoma cells; experiment: Cell viability assay (MTS) HGC27; assay type: cell-based; conditions: 72 h, @ 50 μM
Experimental: as §1

[4] = tested on: MCF-7 breast cancer cells; experiment: Cell viability assay (MTT) MCF-7; assay type: cell-based; conditions: 72 h, @ 50 μM
Experimental: as §1

`COCCn1cc(COc2cccc(Cc3cnc(NC(=O)CSc4nc(C)cc(C)n4)s3)c2)nn1` [Compound 5, SirReal1.2, reference compound] was tested, and the “α-tubulin acetylation (immunofluorescence)” value (α-tubulin acetylation) was “very minor” and the IC50 (Sirt2 (demyristoylation)) was 0.48 ± 0.12 µM.

For `Cc1cc(C)nc(SCC(=O)Nc2ncc(Cc3cccc(OCc4cn(CCCCC(=O)NCc5ccc(C(=O)NO)cc5)nn4)c3)s2)n1` [Compound 32, 4-((5-(4-((3-((2-(2-((4,6-Dimethylpyrimidin-2-yl)thio)acetamido)thiazol-5-yl)methyl)phenoxy)methyl)-1H-1,2,3-triazol-1-yl)pentanamido)methyl)-N-hydroxybenzamide], the PC-3M-luc cellular effect [1] was “ni ^b (ni = no inhibition (cellular effect <20% @ 50 μM))”, the W1 cellular effect (W1 ovarian cancer cells) was “ni ^b (ni = no inhibition (cellular effect <20% @ 50 μM))” and the “Histone H3 hyperacetylation (cellular class I HDAC off-target inhibition)” value [2] was “no significant off-target inhibition of class I”. The HGC27 cellular effect [3] was “ni ^b (ni = no inhibition (cellular effect <20% @ 50 μM))” and the MCF-7 cellular effect [4] was “ni ^b (ni = no inhibition (cellular effect <20% @ 50 μM))”.
